From ChEMBL document CHEMBL1146750, “Design, synthesis and evaluation of potential inhibitors of HIV gp120-CD4 interactions” (Bioorg Med Chem Lett, 2004)

Key:
[1] = Toxicity against HIV cells; assay type: cell-based; settings: human immunodeficiency virus 1
[2] = tested on: Human immunodeficiency virus 1; test: Inhibition of HIV-cell fusion was determined at 10 uM by using cellular FIGS assay; Inactive; assay type: functional, organism-based
[3] = tested on: Human immunodeficiency virus 1; test: Inhibition of HIV-cell fusion was determined by using cellular FIGS assay; assay type: functional, organism-based
[4] = tested on: Human immunodeficiency virus 1; test: Inhibition of HIV-specific CD4-gp120 interaction was determined using recombinant protein; assay type: functional
[5] = tested on: C8166; test: Inhibition of HIV-1 IIIB infections in C8166 cell lines was determined; Range is 4-8 uM; assay type: functional, cell-based; settings: Homo sapiens
[6] = Therapeutic index in C8166 cell lines was determined; assay type: cell-based; settings: human, C8166 cells; read-out: TC50 (the source's name)
[7] = tested on: C8166; test: Inhibition of HIV-1 IIIB infections in C8166 cell lines was determined; 4-8 uM; assay type: functional, cell-based; settings: Homo sapiens

Structure (SMILES)	IC50 [2]	Activity [1] [µM]	other results
Cl.N=C(N)Nc1cccc(Oc2ccccc2)c1			IC50 [3]: 167 µM; Inhibition [4]: 5 mM; EC50 [5]: 8 µM; CC50 [6]: 20 µM
N=C(N)c1cccc(OCc2ccccc2)c1	Not Active	100	
N=C(N)Nc1cccc(OCc2ccc(Cl)cc2)c1.O=C(O)C(F)(F)F	Not Active	100	
Cl.N=C(N)Nc1cccc(OCc2ccccc2)c1			IC50 [3]: 131 µM; Inhibition [4]: 5 mM; EC50 [7]: 8 µM; CC50 [6]: 40 µM
N=C(N)c1cccc(OCc2cccc([N+](=O)[O-])c2)c1	Not Active	100	
N=C(N)c1cccc(OCc2ccc(Cl)cc2)c1	Not Active	100	
Cc1ccc(COc2cccc(C(=N)N)c2)cc1	Not Active	100	

Further lines, with some results ahead:

IC50 [2]	Structure (SMILES)	Activity [1] [µM]	other results
Not Active	N=C(N)c1cccc(OCc2ccc(OCc3ccccc3)cc2)c1	100	
Not Active	N=C(N)Nc1cccc(OCc2ccc(Br)cc2)c1.O=C(O)C(F)(F)F	100	
Not Active	N=C(N)c1cccc(OCc2ccc(Br)cc2)c1	100	
Not Active	N=C(N)c1cccc(Oc2ccccc2)c1	100	
